Literature values as cited in patent publication US9168282B2, “Method for treating neuronal damage and neurological diseases” (priority 2009, dated 2015).

What was measured:
herpes zoster patients [1] = conditions: 500 mg of Famciclovir three times per day, 7 days, meta-analysis data (Can Fam Physician 2008)
herpes zoster patients [2] = conditions: Famciclovir 500 mg three times per day, 7 days, meta-analysis data (Can Fam Physician 2008)

CC(=O)OCC(CCn1cnc2cnc(N)nc21)COC(C)=O [Famciclovir]
Median of time required for generating scab over the whole skin lesion (herpes zoster patients [1]): 5 days | Median of time required for relieving pain (herpes zoster patients [2]): 20 days
